Measured values as given in publication PMC6358866 (International Journal of Molecular Sciences, 2019).

Assays:
[1] = system: Enterococcus faecalis ATCC 29212 biofilm; test: Effect of the lipopeptide on lens liquids against biofilms on 96-well polystyrene plates; assay type: cell-based; conditions: EF biofilm on polystyrene, lipopeptide alone in PBS, 'the same concentration' (32 or 16 mg/L), 24 h
Procedure: Bacterial strains were obtained from the Polish Collection of Microorganisms (Polish Academy of Science, Wroclaw, Poland). Three Gram-positive and two Gram-negative strains linked with CL-related infections were chosen for the study (Staphylococus aureus ATCC 6538, Staphylococcus epidermidis ATCC 14990, Pseudomonas aeruginosa ATCC 9027, Escherichia coli ATCC 25922, and Enterococcus faecalis ATCC 29212). The bacteria were cultured in a Mueller Hinton Broth II (MHB, Biocorp, Warsaw, Poland) overnight, under aerobic conditions at 37 °C. […]
Bacterial suspensions were added to 96-well plates (Kartell, Noviglio, Italy) at initial inoculums of ca. 5 × 10^8 CFU/mL and incubated under aerobic conditions with shaking (120 rpm) at 37 °C for 24 h. […] After 1.5 h of incubation, the absorbance was measured at 570 and 600 nm using a microplate reader (Thermo Fisher Scientific, Waltham, MA, USA). […] The metabolic activity of bacteria in the samples was measured according to the following formula:
Positive controls (100%) were wells with pre-grown biofilms where the MHB II was replaced with pure PBS, while negative controls were wells with pure MHB II (also replaced with PBS). After 24 h of incubation (aerobic conditions, 120 rpm shaking, 37 °C), the solutions were replaced with resazurin in MHB II and the results were read and presented as described in Section 4.3.

[2] = system: Staphylococcus epidermidis ATCC 14990 biofilm; test: Activity against biofilms on 96-well plates after withdrawal of the antimicrobial (additional 24 h in MHB II); assay type: cell-based; conditions: after withdrawal and additional 24 h in MHB II
Procedure: (§1) Bacterial strains were obtained from the Polish Collection of Microorganisms (Polish Academy of Science, Wroclaw, Poland). Three Gram-positive and two Gram-negative strains linked with CL-related infections were chosen for the study (Staphylococus aureus ATCC 6538, Staphylococcus epidermidis ATCC 14990, Pseudomonas aeruginosa ATCC 9027, Escherichia coli ATCC 25922, and Enterococcus faecalis ATCC 29212). The bacteria were cultured in a Mueller Hinton Broth II (MHB, Biocorp, Warsaw, Poland) overnight, under aerobic conditions at 37 °C. […] Bacterial suspensions were added to 96-well plates (Kartell, Noviglio, Italy) at initial inoculums of ca. 5 × 10^8 CFU/mL and incubated under aerobic conditions with shaking (120 rpm) at 37 °C for 24 h. […] After exposure, the wells were washed three times with PBS and a solution of resazurin (Sigma Aldrich, St. […] This cell viability reagent is metabolized by bacterial dehydrogenases upon contact with living cells. As a result, the blue dye is reduced to a pink resorufin. After 1.5 h of incubation, the absorbance was measured at 570 and 600 nm using a microplate reader (Thermo Fisher Scientific, Waltham, MA, USA). […] The procedure was conducted as described in Section 4.3, with the difference that after exposure to antimicrobials, the wells were washed three times with PBS and pure MHB II was added. The samples were incubated for another 24 h (aerobic conditions, 120 rpm shaking, 37 °C). […] The absorbance was measured at the same wave lengths and metabolic activity was calculated according to the formula given in Section 4.3. The presented results are means of nine results obtained on three different days.

[3] = system: Pseudomonas aeruginosa ATCC 9027 biofilm; test: as above; assay type: cell-based; conditions: lowest concentration giving permanent reduction of metabolic activity by at least 50 ± 5%; after withdrawal and additional 24 h in MHB II
Procedure: as §1

[4] = system: Enterococcus faecalis ATCC 29212 biofilm; test: as above; assay type: cell-based; conditions: after withdrawal and additional 24 h in MHB II; for concentration permanently eradicating the biofilm: EF biofilm on polystyrene
Procedure: as §1

[5] = system: Escherichia coli ATCC 25922 biofilm; test: as above; assay type: cell-based; conditions: after withdrawal and additional 24 h in MHB II
Procedure: as §1

[6] = system: Staphylococus aureus ATCC 6538 biofilm on CLs; test: Activity of lipopeptide and CL liquids against biofilms formed on contact lenses; assay type: cell-based, Staphylococcus aureus; conditions: SA biofilm on CLs, lipopeptide in PBS, 24 h, resazurin
Procedure: Bacterial strains were obtained from the Polish Collection of Microorganisms (Polish Academy of Science, Wroclaw, Poland). Three Gram-positive and two Gram-negative strains linked with CL-related infections were chosen for the study (Staphylococus aureus ATCC 6538, Staphylococcus epidermidis ATCC 14990, Pseudomonas aeruginosa ATCC 9027, Escherichia coli ATCC 25922, and Enterococcus faecalis ATCC 29212). The bacteria were cultured in a Mueller Hinton Broth II (MHB, Biocorp, Warsaw, Poland) overnight, under aerobic conditions at 37 °C. After incubation, the liquid cultures were centrifuged (2500 rpm for 10 min) and washed with phosphoric buffer (PBS, AppliChem, Darmstadt, Germany) three times and resuspended in fresh MHB II for inoculums appropriate for the performed assays.
Bacterial biofilms were cultured on commercially available CLs (1-Day Acuvue Moist, containing Etafilcon A, obtained from Johnson and Johnson Vision Care, Jacksonsville, FL, USA). The CLs were placed in polystyrene 24-well plates (Orange Scientific, Braine-l’Alleud, Belgium) in bacterial suspensions in MHB II at initial inoculums of ca. 5 × 10^8 CFU/mL. After 24 h of incubation (aerobic conditions, 120 rpm shaking, 37 °C), all of the CLs were rinsed three times with PBS. […] After incubation, resazurin was added (final concentration per sample = 0.01%) and absorbance was measured as in the assays 4.3 and 4.4. […]

[7] = system: human cells (keratinocytes, erythrocytes); conditions: cited from earlier work
Description: PA was also the most difficult strain to eliminate from the surface of CL in the previous study, in which we investigated amphibian peptides and short lipopeptides containing hexadecanoic acid according to their potential application as CL solution additives. The results of performed antimicrobial assays were also very promising. However, due to high toxicity towards human keratinocytes in vitro, the ocular applications of lipopeptides with hexadecanoic acid are not worth further consideration. In contrast to those lipopeptides, the compound with two residues of decanoic aci ... || The excellent antimicrobial activity was previously reported for many lipopeptides. This, along with the relatively low production costs, has encouraged many research groups to study their antimicrobial activities and design molecules with optimal properties. C16-KK-NH2 is one of such extensively studied compounds. […] Other derivatives ...

[8] = system: Staphylococus aureus ATCC 6538 biofilm; test: Activity against biofilms on 96-well plates after withdrawal of the antimicrobial (additional 24 h in MHB II); assay type: cell-based, Staphylococcus aureus; conditions: after withdrawal and additional 24 h in MHB II
Procedure: as §1

[9] = lowest concentration giving permanent reduction of metabolic activity by at least 50 ± 5%
[10] = lowest concentration giving permanent reduction of metabolic activity by at least 90 ± 5%

With (C10)2-KKKK-NH2 [Lipopeptide] the “reduction of metabolic activity in the biofilm” value [1] was “ca. 95%”, the “concentration giving a permanent antibiofilm effect” value ([2]; SE biofilm on polystyrene) was 16 mg/L and the “MBEC II 50” value [2, 9] was 16 µg/mL. The “MBEC II 90” value [2, 10] was 16 µg/mL, the “MBEC II 50” value [3] was 64 µg/mL and the “concentration permanently eradicating the biofilm” value ([4]; listed as (C10)2-KKKK-NH2) was 32 mg/L. For the same substance, the “concentration permanently eradicating the biofilm” value ([4]; listed as lipopeptide) was 32 to 256 mg/L, the “MBEC II 50” value [4, 9] was 32 µg/mL and the “MBEC II 90” value [4, 10] was 32 µg/mL. The “MBEC II 50” value [5, 9] was 64 µg/mL, the “MBEC II 90” value [5, 10] was 64 µg/mL and the “concentration reducing metabolic activity of bacteria by at least 90%” value [6] was 16 mg/L. The “toxicity towards human cells in vitro” value [7] was “does not exhibit toxicity”, the “concentration permanently eliminating living bacterial cells” value ([8]; SA biofilm on polystyrene) was 32 mg/L and the “MBEC II 50” value [8, 9] was 16 µg/mL. The “MBEC II 90” value [8, 10] was 32 µg/mL.
